# Reference: patent US20080045796A1, “HISTOFLUORESCENT STAIN COMPOSITION FOR ENDOSCOPY” (PENTAX CORPORATION, priority 2006, published 2008)
# Experiments:
# [1] = Measurement of absorption spectrum and fluorescence excitation spectrum; format: physicochemical; details: for maximum absorption wavelength: 1.0 mg/ml, spectrophotometer 200 to 750 nm; for maximum excitation wavelength / maximum fluorescence wavelength: fluorescence spectrophotometer
# Method: Measurement of an absorption spectrum and a fluorescence excitation spectrum of Fast Green FCF was performed. The Fast Green FCF (Wako Pure Chemical Industries, Ltd.) was adjusted to 1.0 mg/ml, and the light absorbance was continuously measured at a wavelength of from 200 to 750 nm using a spectrophotometer (manufactured by Shimadzu Corp., BioSpec-1600) to determine the wavelength at which the absorbance reached the maximum. The maximum absorption wavelength of 628 nm thus obtained was irradiated as an excitation wavelength, and the wavelength of the scattered light detected in the perpendicular direction to the light axis of the excitation light was measured using a fluorescence spectrophotometer (manufactured by Shimadzu Corp., RF-1500), thus to obtain a maximum excitation wavelength of 628 nm and a maximum fluorescence wavelength of 652 nm.
# [2] = tested on: large intestine; test: Perfusion through the heart with Patent Blue, confocal observation of large intestine specimen and frozen section; format: in vivo, mouse
# Method: Patent Blue was used for staining and observation with a confocal microscope. Patent Blue (Sigma-Aldrich Corp., Patent Blue VF) was prepared to 10 mg/mL with physiological saline, and was perfused through the heart of a mouse (ddY, 6 weeks old, male) to perform staining.
# The mouse was subjected to laparotomy to extract the large intestine, and an observation was made for a specimen with a confocal system.
# The imaging conditions were such that a lens of 20 magnifications was used, and the pinhole diameter was 1.00 airy. As the confocal microscope, TCP-SP2 manufactured by Leica Microsystems Corp. was used.
# A frozen section prepared by slicing the mouse large intestine stained in Example 9 to approximately 6 μm was observed under fluorescence to observe the stainability. An adjacent frozen section was used to perform HE staining and was compared to characterize the sites where fluorescent observation was possible by Patent Blue staining.
# (§1) A confocal microscope was used for the observation, which was made at 20, 40 or 63 magnifications.
# [3] = tested on: gastrointestinal lumen; test: Perfusion through the heart with Guinea Green, observation of a frozen section; format: in vivo, mouse; details: 10 mg/mL, 600 μL perfused through the heart
# Method: The gastrointestinal lumen was stained using Guinea Green, and the stainability was examined by observation of a frozen section.
# Guinea Green (Sigma-Aldrich Corp., Guinea Green B) was prepared to 10 mg/mL with physiological saline, and was perfused through the heart of a mouse (ddY, 6 weeks old, male) in an amount of 600 μL.
# Also, it was compared with another frozen section used to perform HE staining, and the sites capable of fluorescent observation by Guinea Green staining were characterized.
# as §1
# [4] = tested on: mouse large intestine; test: Tissue staining by perfusion method, confocal observation of extracted large intestine specimen; details: 1 mg/mL with physiological saline
# Method: IndoCyanine Green (adjusted to 1 mg/mL with physiological saline), which is a medical contrast agent, was used to perform tissue staining. Mouse large intestine was stained by a perfusion method, and observation of an extracted specimen of the large intestine was performed using a confocal microscope (Leica Microsystems Corp., TCP-SP2).
# [5] = tested on: esophagus part of a mouse; test: Extracted esophagus stained, confocal microscope observation; details: 10 mg/mL, pH 7
# Method: The esophagus part of a mouse (ddY, 11 weeks old, male) was extracted, stained using Brilliant Blue FCF, and observed with a confocal microscope (Leica Microsystems Corp., TCP-SP2).
# The Brilliant Blue FCF used was prepared to 10 mg/mL using a 0.1 M sodium phosphate buffer solution (pH 7).
# The imaging conditions were such that the pinhole diameter was 1.00 airy, and a lens of 20 magnifications was used.
"can be excited at, for example [1] [nm]",fluorescence detected at [1] [nm],maximum absorption wavelength [1] [nm],maximum excitation wavelength [1] [nm],maximum fluorescence wavelength [1] [nm],Compound,"staining visible by naked eyes ([2]; 10 mg/mL, 600 μL perfused through the heart)",fluorescence of frozen section ([2]; approximately 6 μm frozen section),confocal observation of the tissue ([2]; area 60 μm deep from the luminal surface),observation capability ([2]; frozen section under fluorescence),fluorescence of frozen section [3],observation capability of the confocal system [3],"fluorescence intensity (fluorescence spectrum) ([1]; compared with Fast Green FCF, FIG. 2)",fluorescence intensity inside the tissue [4],fluorescent contrast in confocal images [5],depth from the luminal surface of clear images ([5]; images at every 5.0 μm)
641,654,639,641,654,Patent Blue VF,the limbs were bluish in color to the extent of being visible by naked eyes,strong fluorescence in the lumen,the lamina propria mucosae could be observed clear,high,–,–,–,–,–,–
624,635,620,624,635,CCN(Cc1cccc(S(=O)(=O)[O-])c1)c1ccc(C(=C2C=CC(=[N+](CC)Cc3cccc(S(=O)(=O)[O-])c3)C=C2)c2ccccc2)cc1.[Na+] [Guinea Green B],–,–,–,–,the lumen side exhibited strong fluorescence,high,–,–,–,–
633,652,635,633,652,CCN(Cc1cccc(S(=O)(=O)O)c1)c1ccc(C(=C2C=CC(=[N+](CC)Cc3cccc(S(=O)(=O)O)c3)C=C2)c2ccc(S(=O)(=O)O)cc2)cc1.[Na+].[Na+] [Light Green SF],–,–,–,–,–,–,–,–,–,–

# The remaining lines, values behind:
Compound,"can be excited at, for example [1] [nm]",fluorescence detected at [1] [nm],maximum absorption wavelength [1] [nm],maximum excitation wavelength [1] [nm],maximum fluorescence wavelength [1] [nm],"staining visible by naked eyes ([2]; 10 mg/mL, 600 μL perfused through the heart)",fluorescence of frozen section ([2]; approximately 6 μm frozen section),confocal observation of the tissue ([2]; area 60 μm deep from the luminal surface),observation capability ([2]; frozen section under fluorescence),fluorescence of frozen section [3],observation capability of the confocal system [3],"fluorescence intensity (fluorescence spectrum) ([1]; compared with Fast Green FCF, FIG. 2)",fluorescence intensity inside the tissue [4],fluorescent contrast in confocal images [5],depth from the luminal surface of clear images ([5]; images at every 5.0 μm)
CCN(Cc1cccc(S(=O)(=O)O)c1)c1ccc(C(=C2C=CC(=[N+](CC)Cc3cccc(S(=O)(=O)O)c3)C=C2)c2ccccc2S(=O)(=O)[O-])cc1.N.N [Alphazurine FG],633,643,630,633,643,–,–,–,–,–,–,–,–,–,–
"CC1(C)C(/C=C/C=C/C=C/C=C2\N(CCCCS(=O)(=O)O)c3ccc4ccccc4c3C2(C)C)=[N+](CCCCS(=O)(=O)[O-])c2ccc3ccccc3c21 [IndoCyanine Green, reference compound]",–,–,–,–,–,–,–,–,–,–,–,the fluorescence intensity is lower than that of the Fast Green FCF,the fluorescence intensity was very low,–,–
CCN(Cc1cccc(S(=O)(=O)[O-])c1)c1ccc(C(=C2C=CC(=[N+](CC)Cc3cccc(S(=O)(=O)[O-])c3)C=C2)c2ccccc2S(=O)(=O)[O-])cc1.[Na+].[Na+] [Brilliant Blue FCF],629,650,629,619,650,–,–,–,–,–,–,–,–,provide fluorescent contrast for the intercellular space of the esophagus epithelial cells,up to 100 μm
